Laboratory results from US20220031710A1, “USE OF ERK5 INHIBITORS FOR TREATING GLIOMAS IN PEDIATRIC SUBJECTS” (UNIVERSITY OF PITTSBURGH - OF THE COMMONWEALTH SYSTEM OF …, priority 2019, published 2022).

Columns and labels:
DIPG-IV cells = assay: Cleaved Caspase 3/7 assay in DIPG-IV cells expressing ERK5 constructs; format: cell-based, human; settings: 500 nM; DIPG-IV cells expressing ERK5-HA or ERK5-HA T733E vs empty vector
ERK5 = ERK5 (Homo sapiens, UniProt Q13164); assay: In vitro kinase assay of purified recombinant ERK5 and MYC; format: biochemical; parameters: purchased ThermoFisher Scientific A32872; settings: 200 μM ATP, 30 minutes at 30° C.
Chain of ERK5 (Q13164 whole entry): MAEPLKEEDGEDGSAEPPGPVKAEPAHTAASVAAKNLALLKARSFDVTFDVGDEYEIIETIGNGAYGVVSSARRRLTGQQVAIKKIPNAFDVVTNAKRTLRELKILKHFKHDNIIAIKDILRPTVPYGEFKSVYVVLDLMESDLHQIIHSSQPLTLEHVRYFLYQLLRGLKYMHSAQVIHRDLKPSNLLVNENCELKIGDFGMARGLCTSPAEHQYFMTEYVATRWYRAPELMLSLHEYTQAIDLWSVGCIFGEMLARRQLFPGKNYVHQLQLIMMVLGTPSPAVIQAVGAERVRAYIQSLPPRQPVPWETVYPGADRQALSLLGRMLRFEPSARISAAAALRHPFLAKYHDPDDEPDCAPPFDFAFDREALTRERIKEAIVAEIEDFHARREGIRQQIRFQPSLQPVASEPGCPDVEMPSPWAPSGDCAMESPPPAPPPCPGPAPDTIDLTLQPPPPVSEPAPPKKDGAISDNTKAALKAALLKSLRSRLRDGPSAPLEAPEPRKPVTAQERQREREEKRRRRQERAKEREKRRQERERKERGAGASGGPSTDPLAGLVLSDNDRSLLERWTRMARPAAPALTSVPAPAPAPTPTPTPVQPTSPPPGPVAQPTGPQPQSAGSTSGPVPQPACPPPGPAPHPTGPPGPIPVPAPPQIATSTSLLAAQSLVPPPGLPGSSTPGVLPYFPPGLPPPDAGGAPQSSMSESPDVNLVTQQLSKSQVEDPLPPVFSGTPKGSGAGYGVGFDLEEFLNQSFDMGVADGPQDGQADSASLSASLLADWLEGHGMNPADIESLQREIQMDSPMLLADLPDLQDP
Experimental: Purified active recombinant ERK5 protein was purchased from ThermoFisher Scientific (Cat #A32872) and purified recombinant MYC was purchased from Abcam (Cat #ab84132). Purified ERK5 and MYC were resuspended in 40 μl of 1× kinase buffer supplemented with 200 μM ATP, 0.25 μg substrate, and 1.0 μg purified recombinant and active kinase. Samples were incubated in the presence or absence of ERK5 inhibitors for 30 minutes at 30° C. The reaction was terminated with 20 μl 3×SDS sample buffer. Samples were then boiled at 100° C. for 5 minutes and then evaluated by western blotting using a phospho MYC ser62 antibody (1:1000). 1× Kinase Buffer recipe: 25 mM Tris (pH 7.5), 5 mM β-glycerophosphate, 2 mM DTT, 0.1 mM Na3VO4, 10 mM MgCl2.

CCOc1cc(C(=O)N2CCC(N3CCN(C)CC3)CC2)ccc1Nc1ncc2c(n1)N(C1CCCC1)c1ccccc1C(=O)N2C [ERK5-IN-1, 11-cyclopentyl-2-[[2-ethoxy-4-[[4-(4-methyl-1-piperazinyl)-1-piperidinyl]carbonyl]phenyl]amino]-5,11-dihydro-5-methyl-6H-pyrimido[4,5b][1,4]benzodiazepin-6-one]
cleaved Caspase 3/7 levels (DIPG-IV cells): reduced cleaved Caspase 3/7 levels
Phosphorylation of MYC(S62) (ERK5): inhibited
